Series [1] concerns the target T1, ATP-dependent translocase ABCB1 (Homo sapiens, UniProt P08183). The series can be described thus: TP_TRANSPORTER: spectrofluorimetric analysis (intracellular accumulation) in K562 and K562/ADR cells. The format is functional, cell-based.
Series [2] addresses T1, ATP-dependent translocase ABCB1. The series can be described thus: TP_TRANSPORTER: inhibition of JC-1 uptake (JC-1: ca 0.1 uM, S9788: 5 uM) in K562 and K562/ADR cells, flow cytometry. The format is functional, cell-based.

T1 sequence (P08183 whole entry): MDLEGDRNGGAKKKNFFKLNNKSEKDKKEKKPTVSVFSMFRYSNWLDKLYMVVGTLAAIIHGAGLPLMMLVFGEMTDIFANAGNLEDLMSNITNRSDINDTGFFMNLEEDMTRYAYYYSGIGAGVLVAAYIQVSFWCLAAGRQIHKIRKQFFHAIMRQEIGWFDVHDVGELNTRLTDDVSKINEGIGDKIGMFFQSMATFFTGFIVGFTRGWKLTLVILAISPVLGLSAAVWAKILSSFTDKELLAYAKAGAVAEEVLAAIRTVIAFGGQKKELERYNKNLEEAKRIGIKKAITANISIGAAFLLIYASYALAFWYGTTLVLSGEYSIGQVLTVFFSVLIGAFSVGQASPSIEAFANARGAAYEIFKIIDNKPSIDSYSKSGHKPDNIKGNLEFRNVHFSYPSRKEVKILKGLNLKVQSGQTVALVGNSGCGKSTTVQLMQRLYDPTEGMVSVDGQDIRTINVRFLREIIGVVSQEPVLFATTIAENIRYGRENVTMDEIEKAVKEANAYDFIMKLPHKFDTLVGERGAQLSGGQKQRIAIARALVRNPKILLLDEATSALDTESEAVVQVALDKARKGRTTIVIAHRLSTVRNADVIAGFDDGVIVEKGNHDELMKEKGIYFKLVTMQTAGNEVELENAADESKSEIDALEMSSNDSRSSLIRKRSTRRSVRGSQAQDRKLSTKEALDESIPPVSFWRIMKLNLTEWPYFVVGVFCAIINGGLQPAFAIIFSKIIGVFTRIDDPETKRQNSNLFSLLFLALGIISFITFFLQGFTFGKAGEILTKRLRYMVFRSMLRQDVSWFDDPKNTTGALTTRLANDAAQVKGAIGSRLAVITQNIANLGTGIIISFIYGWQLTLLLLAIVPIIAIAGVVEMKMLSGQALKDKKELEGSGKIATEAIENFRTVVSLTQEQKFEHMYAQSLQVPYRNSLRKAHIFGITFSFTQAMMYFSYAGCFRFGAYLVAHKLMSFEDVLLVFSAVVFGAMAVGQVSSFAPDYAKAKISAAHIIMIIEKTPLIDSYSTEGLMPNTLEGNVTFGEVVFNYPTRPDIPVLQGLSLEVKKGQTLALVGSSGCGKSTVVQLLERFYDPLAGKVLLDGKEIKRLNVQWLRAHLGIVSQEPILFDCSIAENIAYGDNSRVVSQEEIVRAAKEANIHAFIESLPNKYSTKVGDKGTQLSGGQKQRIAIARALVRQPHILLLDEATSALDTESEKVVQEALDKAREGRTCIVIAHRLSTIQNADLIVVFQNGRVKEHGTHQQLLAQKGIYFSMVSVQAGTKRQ

For `CCN1C(=C/C=C/c2n(CC)c3cc(Cl)c(Cl)cc3[n+]2CC)N(CC)c2cc(Cl)c(Cl)cc21.[I-]`, the Activity result in series [1] was “substrate [+]”.

For the compound `C=CCNc1nc(NCC=C)nc(N2CCC(NCC(c3ccc(F)cc3)c3ccc(F)cc3)CC2)n1`, the Activity entry in series [2] is “inhibitor [+]”.
